Reference: publication PMC7206119, “RIP1 inhibition blocks inflammatory diseases but not tumor growth or metastases” (Cell Death and Differentiation, 2019)

Assays:
Assay in all cases: biochemical
[1] = molecular target: T1, LTK (Homo sapiens, UniProt P29376); design: DiscoverX kinase panel, active-site competition binding (KINOMEscan type), percent of control at one concentration; conditions: competition binding, percent of control
Text: (§1) To investigate the potential therapeutic benefit of inhibiting RIP1, we developed GNE684 or (S)-N-((S)-7-methoxy-1-methyl-2-oxo-2,3,4,5-tetrahydro-1H-pyrido[3,4-b]azepin-3-yl)-5-phenyl-6,7-dihydro-5H-pyrrolo[1,2-b][1,2,4]triazole-2-carboxamide with cross-species potency against RIP1, exquisite kinase selectivity, and favorable pharmacological properties (Fig. 1a–h, S1, Tables S1 and S2, SI file 1). […] (Fig. 1b, S1, and Table S1). […] GNE684 inhibited human RIP1 potently in vitro, and mouse and rat RIP1 with slightly less potency (Fig. 1d). Accordingly, it inhibited TNF-induced necroptosis in human HT-29, mouse L929, or rat H9c2 cells (Fig. 1e). The cellular potency of GNE684 was confirmed in a human whole blood assay using TBZ ([compound left out], IAP antagonist BV6, and pan-caspase inhibitor zVAD) or LZ (LPS plus zVAD) to trigger necroptosis and the release of IL-1α and IL-1β (Fig. 1f).

[2] = molecular target: STK33 (Homo sapiens, UniProt Q9BYT3); design: DiscoverX kinase panel, active-site competition binding (KINOMEscan type), percent of control at one concentration; conditions: competition binding, percent of control
Sequence of STK33 (Q9BYT3 whole entry): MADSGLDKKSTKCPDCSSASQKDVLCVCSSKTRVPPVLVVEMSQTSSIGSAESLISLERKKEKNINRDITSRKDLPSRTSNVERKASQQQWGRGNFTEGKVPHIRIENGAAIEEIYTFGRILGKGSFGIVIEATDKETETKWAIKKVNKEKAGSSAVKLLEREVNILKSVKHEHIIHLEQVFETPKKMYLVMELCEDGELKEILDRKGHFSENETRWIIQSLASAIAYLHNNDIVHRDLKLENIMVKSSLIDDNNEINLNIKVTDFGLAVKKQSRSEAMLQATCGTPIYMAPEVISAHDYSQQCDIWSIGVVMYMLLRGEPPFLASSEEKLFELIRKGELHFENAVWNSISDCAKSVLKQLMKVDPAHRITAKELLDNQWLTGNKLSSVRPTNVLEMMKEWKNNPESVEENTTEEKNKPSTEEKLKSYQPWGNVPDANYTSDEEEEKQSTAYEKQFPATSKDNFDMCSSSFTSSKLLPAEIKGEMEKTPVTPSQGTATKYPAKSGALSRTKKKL
Text: as §1

[3] = molecular target: DYRK1B (Homo sapiens, UniProt Q9Y463); design: DiscoverX kinase panel, active-site competition binding (KINOMEscan type), percent of control at one concentration; conditions: competition binding, percent of control
Text: as §1

[4] = molecular target: DMPK (Homo sapiens, UniProt Q09013); design: Thermo Fisher SelectScreen kinase panel: Z'-LYTE and Adapta activity, LanthaScreen binding
In short: (§2)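 Single-concentration panel: 10 µM GNE684 in KINOMEscan scanMAX binding (468 kinases) and in a 221-kinase panel run as Z'-LYTE/Adapta activity or LanthaScreen binding assays.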

[5] = molecular target: T1, LTK; design: Thermo Fisher SelectScreen kinase panel: Z'-LYTE and Adapta activity, LanthaScreen binding
In short: as §2

[6] = molecular target: Mink1 (Homo sapiens, UniProt Q8N4C8); design: Thermo Fisher SelectScreen kinase panel: Z'-LYTE and Adapta activity, LanthaScreen binding
In short: as §2

[7] = molecular target: RAF1(Y340D,Y341D) (Homo sapiens, UniProt P04049, Y340D/Y341D); design: Thermo Fisher SelectScreen kinase panel: Z'-LYTE and Adapta activity, LanthaScreen binding
In short: as §2

[8] = molecular target: NLK (Homo sapiens, UniProt Q9UBE8); design: Thermo Fisher SelectScreen kinase panel: Z'-LYTE and Adapta activity, LanthaScreen binding
Sequence of NLK (Q9UBE8 whole entry): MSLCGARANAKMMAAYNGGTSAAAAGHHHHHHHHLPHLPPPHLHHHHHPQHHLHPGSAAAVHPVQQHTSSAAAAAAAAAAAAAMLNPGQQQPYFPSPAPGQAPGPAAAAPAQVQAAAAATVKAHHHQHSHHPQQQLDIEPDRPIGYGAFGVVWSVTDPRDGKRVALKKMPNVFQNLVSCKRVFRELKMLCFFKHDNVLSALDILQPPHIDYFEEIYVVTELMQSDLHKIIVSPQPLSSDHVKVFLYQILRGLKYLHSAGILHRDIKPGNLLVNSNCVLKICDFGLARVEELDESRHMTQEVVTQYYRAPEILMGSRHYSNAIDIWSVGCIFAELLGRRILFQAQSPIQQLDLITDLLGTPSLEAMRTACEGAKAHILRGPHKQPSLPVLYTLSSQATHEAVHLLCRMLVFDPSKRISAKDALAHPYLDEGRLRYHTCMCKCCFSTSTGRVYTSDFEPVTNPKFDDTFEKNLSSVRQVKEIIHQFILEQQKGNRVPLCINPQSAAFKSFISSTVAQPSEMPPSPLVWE
In short: as §2

[9] = molecular target: ITK (Homo sapiens, UniProt Q08881); design: Thermo Fisher SelectScreen kinase panel: Z'-LYTE and Adapta activity, LanthaScreen binding
Sequence of ITK (Q08881 whole entry): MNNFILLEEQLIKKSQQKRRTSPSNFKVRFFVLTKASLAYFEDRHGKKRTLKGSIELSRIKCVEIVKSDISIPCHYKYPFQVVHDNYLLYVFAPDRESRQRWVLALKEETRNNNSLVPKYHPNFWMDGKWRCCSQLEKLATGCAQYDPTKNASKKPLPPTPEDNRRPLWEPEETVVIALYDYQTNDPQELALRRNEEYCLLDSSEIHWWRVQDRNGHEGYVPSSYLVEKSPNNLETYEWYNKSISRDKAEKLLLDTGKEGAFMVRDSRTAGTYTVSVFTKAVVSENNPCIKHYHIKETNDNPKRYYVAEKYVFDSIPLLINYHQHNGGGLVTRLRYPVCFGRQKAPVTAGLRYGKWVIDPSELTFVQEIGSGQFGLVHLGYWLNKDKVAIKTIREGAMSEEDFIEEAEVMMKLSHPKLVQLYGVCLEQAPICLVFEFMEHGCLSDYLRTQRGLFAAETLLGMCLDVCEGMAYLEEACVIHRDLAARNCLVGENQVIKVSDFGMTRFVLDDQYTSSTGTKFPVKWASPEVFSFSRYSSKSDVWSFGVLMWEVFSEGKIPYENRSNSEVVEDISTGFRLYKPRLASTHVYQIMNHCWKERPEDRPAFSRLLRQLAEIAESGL
In short: as §2

[10] = molecular target: T2, BRK (Homo sapiens, UniProt Q13882); design: Thermo Fisher SelectScreen kinase panel: Z'-LYTE and Adapta activity, LanthaScreen binding
T2 construct: gene PTK6
T2 sequence (Q13882 whole entry): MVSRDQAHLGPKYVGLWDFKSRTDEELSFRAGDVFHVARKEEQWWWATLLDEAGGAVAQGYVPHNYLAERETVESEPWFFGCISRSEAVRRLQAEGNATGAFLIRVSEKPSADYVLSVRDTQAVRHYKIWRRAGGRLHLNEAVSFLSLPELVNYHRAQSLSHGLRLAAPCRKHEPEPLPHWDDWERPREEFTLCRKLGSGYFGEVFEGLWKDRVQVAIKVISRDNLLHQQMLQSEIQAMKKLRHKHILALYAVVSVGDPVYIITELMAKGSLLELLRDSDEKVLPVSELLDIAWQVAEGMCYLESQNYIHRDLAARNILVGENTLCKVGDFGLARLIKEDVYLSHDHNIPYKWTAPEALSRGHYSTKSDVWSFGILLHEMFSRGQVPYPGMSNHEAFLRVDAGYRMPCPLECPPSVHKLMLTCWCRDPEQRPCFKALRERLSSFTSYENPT
In short: as §2

[11] = molecular target: T3, MST3 (Homo sapiens, UniProt Q9Y6E0); design: Thermo Fisher SelectScreen kinase panel: Z'-LYTE and Adapta activity, LanthaScreen binding
T3 construct: gene STK24
T3 sequence (Q9Y6E0 whole entry): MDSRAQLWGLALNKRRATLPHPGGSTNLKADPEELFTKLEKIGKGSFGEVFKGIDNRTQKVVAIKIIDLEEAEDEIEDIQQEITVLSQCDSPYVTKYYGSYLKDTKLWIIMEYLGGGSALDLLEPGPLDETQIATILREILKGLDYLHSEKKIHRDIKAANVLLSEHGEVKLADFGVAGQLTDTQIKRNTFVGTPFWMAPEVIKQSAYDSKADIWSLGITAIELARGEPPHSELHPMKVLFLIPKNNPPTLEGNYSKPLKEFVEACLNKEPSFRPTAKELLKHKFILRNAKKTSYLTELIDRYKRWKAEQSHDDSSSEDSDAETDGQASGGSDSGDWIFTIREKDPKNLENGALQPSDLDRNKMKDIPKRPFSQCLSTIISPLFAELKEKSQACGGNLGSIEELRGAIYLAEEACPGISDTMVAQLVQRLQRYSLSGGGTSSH
In short: as §2

[12] = molecular target: IRAK1 (Homo sapiens, UniProt P51617); design: Thermo Fisher SelectScreen kinase panel: Z'-LYTE and Adapta activity, LanthaScreen binding
Sequence of IRAK1 (P51617 whole entry): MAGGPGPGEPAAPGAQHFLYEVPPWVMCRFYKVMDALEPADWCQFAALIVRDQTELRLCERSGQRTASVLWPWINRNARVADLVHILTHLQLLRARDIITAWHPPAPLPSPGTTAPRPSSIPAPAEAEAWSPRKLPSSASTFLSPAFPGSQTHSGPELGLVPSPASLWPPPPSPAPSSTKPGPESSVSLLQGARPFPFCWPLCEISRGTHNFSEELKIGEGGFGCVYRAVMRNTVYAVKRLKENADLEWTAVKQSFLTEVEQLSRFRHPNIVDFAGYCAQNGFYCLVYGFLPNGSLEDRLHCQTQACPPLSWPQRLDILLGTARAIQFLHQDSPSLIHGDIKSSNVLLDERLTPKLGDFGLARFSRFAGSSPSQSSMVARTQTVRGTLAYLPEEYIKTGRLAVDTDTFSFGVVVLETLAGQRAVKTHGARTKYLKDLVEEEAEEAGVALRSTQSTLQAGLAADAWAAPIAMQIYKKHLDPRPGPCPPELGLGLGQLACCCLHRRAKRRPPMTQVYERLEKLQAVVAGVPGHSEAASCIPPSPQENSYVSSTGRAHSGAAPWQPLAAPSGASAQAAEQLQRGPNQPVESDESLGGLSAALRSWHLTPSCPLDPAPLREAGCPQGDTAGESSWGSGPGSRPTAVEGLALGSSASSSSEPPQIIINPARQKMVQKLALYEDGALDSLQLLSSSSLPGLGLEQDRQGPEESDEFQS
In short: as §2

[13] = molecular target: PLK1 (Homo sapiens, UniProt P53350); design: Thermo Fisher SelectScreen kinase panel: Z'-LYTE and Adapta activity, LanthaScreen binding
In short: as §2

[14] = molecular target: T4, MKK6 (Homo sapiens, UniProt P52564); design: Thermo Fisher SelectScreen kinase panel: Z'-LYTE and Adapta activity, LanthaScreen binding
T4 construct: gene MAP2K6
In short: as §2

[15] = molecular target: CAMKK1 (Homo sapiens, UniProt Q8N5S9); design: Thermo Fisher SelectScreen kinase panel: Z'-LYTE and Adapta activity, LanthaScreen binding
Sequence of CAMKK1 (Q8N5S9 whole entry): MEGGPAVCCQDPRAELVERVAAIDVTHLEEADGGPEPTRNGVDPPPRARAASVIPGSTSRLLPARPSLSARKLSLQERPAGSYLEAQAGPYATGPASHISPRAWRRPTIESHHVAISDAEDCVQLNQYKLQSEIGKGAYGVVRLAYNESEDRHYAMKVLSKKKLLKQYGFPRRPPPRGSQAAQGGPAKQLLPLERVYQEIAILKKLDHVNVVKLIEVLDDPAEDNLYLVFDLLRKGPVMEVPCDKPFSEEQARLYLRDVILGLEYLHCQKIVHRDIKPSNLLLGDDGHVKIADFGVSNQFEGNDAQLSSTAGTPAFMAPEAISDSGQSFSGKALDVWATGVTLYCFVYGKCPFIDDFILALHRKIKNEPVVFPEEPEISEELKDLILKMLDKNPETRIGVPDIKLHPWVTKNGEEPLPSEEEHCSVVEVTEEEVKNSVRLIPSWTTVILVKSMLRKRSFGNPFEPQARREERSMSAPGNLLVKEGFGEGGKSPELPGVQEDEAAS
In short: as §2

[16] = molecular target: T5, CK2_alpha1 (Homo sapiens, UniProt P68400); design: Thermo Fisher SelectScreen kinase panel: Z'-LYTE and Adapta activity, LanthaScreen binding
T5 construct: gene CSNK2A1
In short: as §2

[17] = molecular target: CDK7/cyclinH (Homo sapiens, UniProt P50613); design: Thermo Fisher SelectScreen kinase panel: Z'-LYTE and Adapta activity, LanthaScreen binding
Sequence of CDK7/cyclinH (P50613 whole entry): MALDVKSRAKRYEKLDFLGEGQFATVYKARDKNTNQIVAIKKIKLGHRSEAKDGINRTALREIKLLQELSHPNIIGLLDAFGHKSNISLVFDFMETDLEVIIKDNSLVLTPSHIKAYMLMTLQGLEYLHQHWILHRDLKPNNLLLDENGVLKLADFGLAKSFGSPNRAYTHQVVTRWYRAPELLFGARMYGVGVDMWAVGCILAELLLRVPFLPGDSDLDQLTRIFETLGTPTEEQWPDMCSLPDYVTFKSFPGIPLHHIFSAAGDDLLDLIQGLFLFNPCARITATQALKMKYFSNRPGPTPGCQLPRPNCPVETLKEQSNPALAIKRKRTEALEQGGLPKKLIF
In short: as §2

[18] = molecular target: T6, KHS1 (Homo sapiens, UniProt Q9Y4K4); design: Thermo Fisher SelectScreen kinase panel: Z'-LYTE and Adapta activity, LanthaScreen binding
T6 construct: gene MAP4K5
In short: as §2

T1 sequence (P29376 whole entry): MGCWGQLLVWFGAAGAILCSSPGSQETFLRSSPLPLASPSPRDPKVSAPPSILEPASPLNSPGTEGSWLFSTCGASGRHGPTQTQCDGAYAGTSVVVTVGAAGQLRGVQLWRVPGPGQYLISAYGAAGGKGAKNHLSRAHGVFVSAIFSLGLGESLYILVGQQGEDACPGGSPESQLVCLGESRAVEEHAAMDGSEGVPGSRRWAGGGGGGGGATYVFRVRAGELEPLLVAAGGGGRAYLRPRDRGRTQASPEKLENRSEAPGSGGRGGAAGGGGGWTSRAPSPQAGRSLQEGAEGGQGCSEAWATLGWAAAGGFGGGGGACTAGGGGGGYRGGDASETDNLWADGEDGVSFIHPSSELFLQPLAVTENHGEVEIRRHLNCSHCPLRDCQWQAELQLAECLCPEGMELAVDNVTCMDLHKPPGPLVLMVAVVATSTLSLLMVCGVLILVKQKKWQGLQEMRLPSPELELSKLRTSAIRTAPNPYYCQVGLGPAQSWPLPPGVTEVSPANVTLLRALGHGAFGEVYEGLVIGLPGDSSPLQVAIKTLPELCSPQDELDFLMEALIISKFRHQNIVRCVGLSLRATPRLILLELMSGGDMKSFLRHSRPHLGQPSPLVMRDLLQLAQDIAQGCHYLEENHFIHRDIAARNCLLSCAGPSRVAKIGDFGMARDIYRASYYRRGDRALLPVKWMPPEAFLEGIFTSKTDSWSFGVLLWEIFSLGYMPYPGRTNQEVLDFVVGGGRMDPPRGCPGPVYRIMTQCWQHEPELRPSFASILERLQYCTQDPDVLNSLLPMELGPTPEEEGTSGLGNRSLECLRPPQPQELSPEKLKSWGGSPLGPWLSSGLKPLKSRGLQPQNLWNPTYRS

SMILES: COc1cc2c(cn1)N(C)C(=O)[C@@H](NC(=O)c1nc3n(n1)[C@H](c1ccccc1)CC3)CC2 [GNE684, (S)-N-((S)-7-methoxy-1-methyl-2-oxo-2,3,4,5-tetrahydro-1H-pyrido[3,4-b]azepin-3-yl)-5-phenyl-6,7-dihydro-5H-pyrrolo[1,2-b][1,2,4]triazole-2-carboxamide]
- remaining binding at 10 µM [1]: 93%
- remaining binding at 10 µM [2]: 86%
- remaining binding at 10 µM [3]: 54%
- inhibition at 10 µM [4]: -3%
- inhibition at 10 µM [5]: 7.5%
- inhibition at 10 µM [6]: 18.5%
- inhibition at 10 µM [7]: -2%
- inhibition at 10 µM [8]: -0.5%
- inhibition at 10 µM [9]: 5%
- inhibition at 10 µM [10]: -1%
- inhibition at 10 µM [11]: 4%
- inhibition at 10 µM [12]: -10.5%
- inhibition at 10 µM [13]: 4%
- inhibition at 10 µM [14]: -4.5%
- inhibition at 10 µM [15]: -7.5%
- inhibition at 10 µM [16]: 3.5%
- inhibition at 10 µM [17]: 5%
- inhibition at 10 µM [18]: 12%
